# Where two headings read alike, the source gives them in different places.
# Columns and labels:
# EP4R = molecular target: T1, EP4R (Homo sapiens, UniProt P35408); test: PRESTO-Tango β-arrestin2 recruitment assay; assay type: cell-based
# T1 construct: Tango fusion cassette (only 'tango' is printed); expressed in transfected cells; host or cells: HTLA cells (tTA-dependent luciferase reporter, β-arrestin2-TEV fusion)
# in vivo = assay type: in vivo, mice
# [1] = male, CD-1, mouse, plasma, ip, 10 mg/kg, mice, IP 10 mg/kg, plasma, mean of 3 animals, read-out: Plasma concentration C (mean)
# [2] = male, CD-1, mouse, plasma, ip, 10 mg/kg, mice, IP 10 mg/kg, plasma, single animal, D=1, read-out: Final plasma concentration, individual sample
# [3] = male, CD-1, mouse, plasma, iv, 10 mg/kg, mice, IV 10 mg/kg, plasma, single animals, read-out: Plasma concentration, Final (individual mouse)
# [4] = male, CD-1, mouse, plasma, iv, 10 mg/kg, mice, IV 10 mg/kg, plasma, read-out: Plasma concentration C (mean)
# T1 sequence (P35408 whole entry, the tested form may be a part): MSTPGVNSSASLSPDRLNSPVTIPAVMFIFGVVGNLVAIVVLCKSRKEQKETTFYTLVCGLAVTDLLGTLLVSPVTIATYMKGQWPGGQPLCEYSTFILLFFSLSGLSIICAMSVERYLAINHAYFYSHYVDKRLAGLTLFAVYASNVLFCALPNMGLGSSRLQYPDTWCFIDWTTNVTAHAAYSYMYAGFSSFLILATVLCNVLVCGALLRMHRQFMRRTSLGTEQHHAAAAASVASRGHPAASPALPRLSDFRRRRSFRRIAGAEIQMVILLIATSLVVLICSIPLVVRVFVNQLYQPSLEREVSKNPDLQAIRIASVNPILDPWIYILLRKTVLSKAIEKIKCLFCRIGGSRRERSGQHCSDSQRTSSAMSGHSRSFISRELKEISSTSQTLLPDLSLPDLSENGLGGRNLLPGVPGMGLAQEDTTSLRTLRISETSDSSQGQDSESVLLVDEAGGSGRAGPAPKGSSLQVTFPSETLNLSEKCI
structure (smiles),measurement,setting,value
"O=C([O-])C1CCC2(CC1)CC(Nc1ncnc3[nH]c4c(F)cccc4c13)C2.[Na+] (centres unmarked) [Compound 77, [Na+].[O-]C(=O)C1CCC2(CC(C2)NC=3N=CN=C4NC=5C(F)=CC=CC5C34)CC1]",IC50,EP4R; PRESTO-Tango IC50 (nM),232 nM
same,Ki,"EP4R; calculated using the Cheng Prusoff equation, read-out: PRESTO-Tango Ki*",46 nM
same,concentrations in blood compared to CJ-42794,"in vivo; 10 mg/kg i.p., two to four hours after injection",higher concentrations in blood two to four hours after injection
same,concentration at 5 min,in vivo; [1],2420 ng/mL
same,concentration at 5 min,in vivo; [2],2380 ng/mL
same,concentration at 15 min,in vivo; [1],7250 ng/mL
same,concentration at 15 min,in vivo; [2],6880 ng/mL
same,concentration at 30 min,in vivo; [1],6710 ng/mL
same,concentration at 30 min,in vivo; [2],8130 ng/mL
same,concentration at 60 min,in vivo; [1],9910 ng/mL
same,concentration at 60 min,in vivo; [2],10900 ng/mL
same,concentration at 120 min,in vivo; [1],6380 ng/mL
same,concentration at 240 min,in vivo; [1],3590 ng/mL
same,concentration at 360 min,in vivo; [1],1980 ng/mL
same,concentration at 360 min,in vivo; [2],1660 ng/mL
same,concentration at 480 min,in vivo; [1],753 ng/mL
same,concentration at 480 min,in vivo; [2],889 ng/mL
same,concentration at 1440 min,in vivo; [1],17 ng/mL
same,concentration at 1440 min,in vivo; [2],18.9 ng/mL
same,Cmax,"in vivo; male, CD-1, mouse, plasma, ip, 10 mg/kg i.p., mice",9910 ng/mL
same,AUC,"in vivo; male, CD-1, mouse, plasma, ip, 10 mg/kg i.p., mice, read-out: plasma AUC (converted)",39500 ng·h/mL
same,concentration at 5 min,in vivo; [3],24100 ng/mL
same,concentration at 5 min,in vivo; [4],26200 ng/mL
same,concentration at 15 min,in vivo; [3],14400 ng/mL
same,concentration at 15 min,in vivo; [4],17000 ng/mL
same,concentration at 30 min,in vivo; [3],10900 ng/mL
same,concentration at 30 min,in vivo; [4],12700 ng/mL
same,concentration at 60 min,in vivo; [3],11000 ng/mL
same,concentration at 60 min,in vivo; [4],10500 ng/mL
same,concentration at 120 min,in vivo; [3],4760 ng/mL
same,concentration at 120 min,in vivo; [4],4090 ng/mL
same,concentration at 240 min,in vivo; [3],2370 ng/mL
same,concentration at 240 min,in vivo; [4],2080 ng/mL
same,concentration at 360 min,in vivo; [3],1260 ng/mL
same,concentration at 360 min,in vivo; [4],1730 ng/mL
same,concentration at 480 min,in vivo; [4],1240 ng/mL
same,concentration at 1440 min,in vivo; [4],43.2 ng/mL
same,AUC,"in vivo; male, CD-1, mouse, plasma, iv, 10 mg/kg i.v., mice, read-out: AUC (converted)",46200 ng·h/mL
same,bioavailability,"in vivo; male, CD-1, mouse, plasma, oral, 30 mg/kg p.o. vs 10 mg/kg i.v., mice",78%
same,concentration at 5 min,"in vivo; male, CD-1, mouse, plasma, po, 30 mg/kg, mice, PO 30 mg/kg, plasma, read-out: Plasma concentration C (mean)",4340 ng/mL
same,concentration at 15 min,"in vivo; male, CD-1, mouse, plasma, po, 30 mg/kg, mice, PO 30 mg/kg, plasma, single animals, read-out: Plasma concentration, Final (individual mouse)",17600 ng/mL
